Assay results from article PMC4300529 (Anesthesiology, 2015).

Assays:
Xenopus tadpoles = experiment: Xenopus tadpole anesthetic activity; assay type: in vivo, Xenopus laevis
mice [1] = experiment: Loss-of-righting reflex anesthetic potency assay in mice; assay type: in vivo, mice (C57BL/6J)
mice [2] = settings: previously reported; cited from earlier work
apoferritin = apoferritin (Equus caballus, UniProt P02791); experiment: biochemical
[3] = pharmacokinetic profiling; assay type: in vivo; settings: data not shown

Chain of apoferritin (P02791 2-175 limits assumed): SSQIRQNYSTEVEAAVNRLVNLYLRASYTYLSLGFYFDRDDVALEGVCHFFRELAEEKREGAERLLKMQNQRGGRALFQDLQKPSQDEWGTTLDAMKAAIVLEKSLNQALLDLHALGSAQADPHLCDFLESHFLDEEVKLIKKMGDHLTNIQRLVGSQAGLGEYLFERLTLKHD

CC(C)c1cccc(C(C)C)c1O [propofol, reference compound]
toxicity in tadpoles at 100 μM (Xenopus tadpoles; 100 μM): produced death at 100 μM
duration of LoRR (mice [1]; 20 mg/kg (0.11 mmol/kg)): 445 ± 27
logED50 in mice (mice [2]): −1.03 mmol/kg
IC50 (apoferritin): 23 µM

Cc1ccc(-c2ccc(=O)n(CC(=O)NCCc3ccccc3)n2)cc1 [compound 5]
anesthetic activity / potency in tadpoles (immobility), in words (Xenopus tadpoles; tadpole immobility after 60 minutes exposure, SAR statements to figs 4-6): optimal anesthetic activity
mean duration of LoRR (mice [1]; 100 mg/kg iv): 245 ± 65 s
onset of LoRR (mice [1]; intravenous, doses roughly twice that of propofol (moles per kilogram)): < 20 s
LogED50 for LoRR (mice [1]; iv injection, unit printed only with the propofol value of the same legend): −0.761 mmol/kg
pharmacokinetic profile (uptake, distribution, elimination) [3]: did not show any remarkable patterns of uptake, distribution, or elimination
